Assay results: patent US20230322721A1 (OSLO UNIVERSITETSSYKEHUS HF, priority 2020, published 2023)
Like-named read-outs stand apart in the source and are kept apart here.

Assays:
HEK293 = experiment: Cellular IC50 HEK293; format: cell-based
Excerpt: (§1) XLfit (idbs) was used to determine the IC50-values in inhibition experiments. The following formula was chosen to fit the data points (Langmuir Binding Isotherm): fit=((A+(B*x))+(((C−B)*(1−exp((−1*D)*x)))/D)), res=(y−fit).

TNKS2 = TNKS2 (Homo sapiens (Human), UniProt Q9H2K2); experiment: Biochemical IC50 TNKS2
Sequence of TNKS2 (Q9H2K2 whole entry): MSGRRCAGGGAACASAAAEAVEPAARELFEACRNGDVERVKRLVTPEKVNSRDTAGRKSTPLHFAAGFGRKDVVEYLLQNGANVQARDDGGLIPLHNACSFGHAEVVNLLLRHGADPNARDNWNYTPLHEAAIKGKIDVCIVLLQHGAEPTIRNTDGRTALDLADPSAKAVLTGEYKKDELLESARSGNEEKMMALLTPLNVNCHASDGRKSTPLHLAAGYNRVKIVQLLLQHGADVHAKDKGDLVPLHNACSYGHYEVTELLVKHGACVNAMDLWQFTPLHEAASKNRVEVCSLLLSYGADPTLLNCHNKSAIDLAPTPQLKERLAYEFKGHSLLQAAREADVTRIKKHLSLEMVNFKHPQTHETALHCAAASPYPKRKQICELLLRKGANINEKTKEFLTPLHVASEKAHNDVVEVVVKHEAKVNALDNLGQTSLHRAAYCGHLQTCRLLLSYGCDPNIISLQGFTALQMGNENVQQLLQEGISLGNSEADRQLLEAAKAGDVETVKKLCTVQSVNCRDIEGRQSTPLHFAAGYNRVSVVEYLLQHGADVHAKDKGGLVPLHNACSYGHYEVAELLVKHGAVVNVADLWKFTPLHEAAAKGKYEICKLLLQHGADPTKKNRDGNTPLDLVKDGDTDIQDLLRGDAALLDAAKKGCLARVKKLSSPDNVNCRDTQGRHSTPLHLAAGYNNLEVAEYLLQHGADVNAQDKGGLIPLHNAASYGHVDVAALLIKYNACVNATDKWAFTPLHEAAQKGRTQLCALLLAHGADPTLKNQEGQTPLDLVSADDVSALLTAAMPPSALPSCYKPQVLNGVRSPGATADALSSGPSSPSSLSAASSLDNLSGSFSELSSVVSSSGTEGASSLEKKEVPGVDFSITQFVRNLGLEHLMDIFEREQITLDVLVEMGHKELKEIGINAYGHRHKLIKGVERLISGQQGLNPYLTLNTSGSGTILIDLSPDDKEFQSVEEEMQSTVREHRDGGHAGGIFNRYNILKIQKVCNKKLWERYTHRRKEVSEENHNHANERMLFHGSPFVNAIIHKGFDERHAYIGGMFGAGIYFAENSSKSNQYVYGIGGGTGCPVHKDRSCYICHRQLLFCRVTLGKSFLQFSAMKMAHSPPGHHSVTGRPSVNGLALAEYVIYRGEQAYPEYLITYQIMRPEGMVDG
Excerpt: as §1

[1] = Homo sapiens, HEK293; read-out: Cellular IC50 HEK 293
[2] = Homo sapiens, HEK293; read-out: Cellular IC50 HEK293
[3] = Homo sapiens, HEK293, read-out: Cellular IC50 HEK 293
[4] = Homo sapiens, HEK293, read-out: Cellular IC50 HEK293
[5] = read-out: Biochemical IC50 TNKS2

IC50 (TNKS2; [5]) | SMILES | IC50 (HEK293; [1]) | IC50 (HEK293; [2]) | IC50 (HEK293; [3]) | IC50 (HEK293; [4]) | IC50 (TNKS2)
– | CCOc1ccc(-c2nnc([C@H]3C[C@H](NC(=O)c4cccc(C(N)=O)n4)C3)n2-c2ccccc2F)nc1 [Example 7, N-(trans-3-(5-(5-ethoxypyridin-2-yl)-4-(2-fluorophenyl)-4H-1,2,4-triazol-3-yl)cyclobutyl)pyridine-2,6-dicarboxamide] | 70 nM | 70 nM | – | – | –
– | CCOc1ccc(-c2nnc([C@H]3C[C@H](NC(=O)c4cccc(C(=O)NC)n4)C3)n2-c2ccccc2F)nc1 [Example 8, N2-(trans-3-(5-(5-ethoxypyridin-2-yl)-4-((S)-2-fluorophenyl)-4H-1,2,4-triazol-3-yl)cyclobutyl)-N6-methylpyridine-2,6-dicarboxamide] | 21 nM | 21 nM | – | – | –
– | CCOc1ccc(-c2nnc([C@H]3C[C@H](NC(=O)c4cccc(C(=O)N(C)C)n4)C3)n2-c2ccccc2F)nc1 [Example 9] | 190 nM | 187 nM | – | – | –
– | CCOc1ccc(-c2nnc([C@H]3C[C@H](NC(=O)c4cccc(C(=O)N5CCC5)n4)C3)n2-c2ccccc2F)nc1 [Example 10, 6-(azetidine-1-carbonyl)-N-(trans-3-(5-(5-ethoxypyridin-2-yl)-4-((S)-2-fluorophenyl)-4H-1,2,4-triazol-3-yl)cyclobutyl)picolinamide] | – | – | 41 nM | 41 nM | –
– | CCOc1ccc(-c2nnc([C@H]3C[C@H](NC(=O)c4cccc(=O)[nH]4)C3)n2-c2ccccc2F)nc1 [Example 11, N-(trans-3-(5-(5-ethoxypyridin-2-yl)-4-(2-fluorophenyl)-4H-1,2,4-triazol-3-yl)cyclobutyl)-6-oxo-1,6-dihydropyridine-2-carboxamide] | 2800 nM | 2770 nM | – | – | –
– | CCOc1ccc(-c2nnc([C@H]3C[C@H](NC(=O)c4cccc5cc(O)ccc45)C3)n2-c2ccccc2F)nc1 [Example 12] | > 10000 nM | > 10000 nM | – | – | –
– | CCOc1ccc(-c2nnc([C@H]3C[C@H](NC(=O)c4cccc5[nH]c(=O)ccc45)C3)n2-c2ccccc2F)nc1 [Example 13, N-(trans-3-(5-(5-ethoxypyridin-2-yl)-4-(2-fluorophenyl)-4H-1,2,4-triazol-3-yl)cyclobutyl)-2-oxo-1,2-dihydroquinoline-5-carboxamide] | > 10000 nM | > 10000 nM | – | – | –
– | CCOc1ccc(-c2nnc([C@H]3C[C@H](NC(=O)c4cccc5c(O)ccnc45)C3)n2-c2ccccc2F)nc1 [Example 14, N-(trans-3-(5-(5-ethoxypyridin-2-yl)-4-(2-fluorophenyl)-4H-1,2,4-triazol-3-yl)cyclobutyl)-4-hydroxyquinoline-8-carboxamide] | 8.5 nM | 8.5 nM | – | – | –
– | CCOc1ccc(-c2nnc([C@H]3C[C@H](NC(=O)c4cccc(O)c4)C3)n2-c2ccccc2F)nc1 [Example 15, N-(trans-3-(5-(5-ethoxypyridin-2-yl)-4-(2-fluorophenyl)-4H-1,2,4-triazol-3-yl)cyclobutyl)-3-hydroxybenzamide] | 130 nM | 130 nM | – | – | –
– | CCOc1ccc(-c2nnc([C@H]3C[C@H](NC(=O)c4cccc(S(N)(=O)=O)c4)C3)n2-c2ccccc2F)nc1 [Example 16, N-(trans-3-(5-(5-ethoxypyridin-2-yl)-4-(2-fluorophenyl)-4H-1,2,4-triazol-3-yl)cyclobutyl)-3-sulfamoylbenzamide] | 2300 nM | 2260 nM | – | – | –
– | CCOc1ccc(-c2nnc([C@H]3C[C@H](NC(=O)c4ccc[n+]([O-])c4)C3)n2-c2ccccc2F)nc1 [Example 18, 3-((trans-3-(5-(5-ethoxypyridin-2-yl)-4-(2-fluorophenyl)-4H-1,2,4-triazol-3-yl)cyclobutyl)carbamoyl)pyridine 1-oxide] | > 10000 nM | > 10000 nM | – | – | –
– | CCOc1ccc(-c2nnc([C@H]3C[C@H](NC(=O)c4cc[n+]([O-])cc4)C3)n2-c2ccccc2F)nc1 [Example 19, 4-((trans-3-(5-(5-ethoxypyridin-2-yl)-4-(2-fluorophenyl)-4H-1,2,4-triazol-3-yl)cyclobutyl)carbamoyl)pyridine 1-oxide] | 34 nM | 34 nM | – | – | –
7.2 nM | CCOc1ccc(-c2nnc([C@H]3C[C@H](NC(=O)c4cccc(N)n4)C3)n2-c2ccccc2F)nc1 [Example 20, 6-amino-N-(trans-3-(5-(5-ethoxypyridin-2-yl)-4-(2-fluorophenyl)-4H-1,2,4-triazol-3-yl)cyclobutyl)picolinamide] | 27 nM | 27 nM | – | – | –
12.5 nM | CCOc1ccc(-c2nnc([C@H]3C[C@H](NC(=O)c4ccc5cccc(O)c5n4)C3)n2-c2ccccc2F)nc1 [Example 21, N-(trans-3-(5-(5-ethoxypyridin-2-yl)-4-(2-fluorophenyl)-4H-1,2,4-triazol-3-yl)cyclobutyl)-8-hydroxyquinoline-2-carboxamide] | 72 nM | 72 nM | – | – | –
2.1 nM | CCOc1ccc(-c2nnc([C@H]3C[C@H](NC(=O)c4cccc5c(N(C)C)ccnc45)C3)n2-c2ccccc2F)nc1 [Example 22] | 15 nM | 15 nM | – | – | –
1.3 nM | CCOc1ccc(-c2nnc([C@H]3C[C@H](NC(=O)c4cccc5cc(O)cnc45)C3)n2-c2ccccc2F)nc1 [Example 23, N-(trans-3-(5-(5-ethoxypyridin-2-yl)-4-(2-fluorophenyl)-4H-1,2,4-triazol-3-yl)cyclobutyl)-3-hydroxyquinoline-8-carboxamide] | 3.6 nM | 3.6 nM | – | – | –
– | CCOc1ccc(-c2nnc([C@H]3C[C@H](NC(=O)c4cccc5c4nc(C)c(C)[n+]5[O-])C3)n2-c2ccccc2F)nc1 [Example 24, 5-((trans-3-(5-(5-ethoxypyridin-2-yl)-4-(2-fluorophenyl)-4H-1,2,4-triazol-3-yl)cyclobutyl)carbamoyl)-2,3-dimethylquinoxaline 1-oxide] | – | – | 3.7 nM | 3.7 nM | –
– | CCOc1ccc(-c2nnc([C@H]3C[C@H](NC(=O)c4cccc5c4ccc[n+]5[O-])C3)n2-c2ccccc2F)nc1 [Example 25, 5-((trans-3-(5-(5-ethoxypyridin-2-yl)-4-(2-fluorophenyl)-4H-1,2,4-triazol-3-yl)cyclobutyl)carbamoyl)quinoline 1-oxide] | – | – | 10000 nM | 9960 nM | 978 nM
– | CCOc1ccc(-c2nnc([C@H]3C[C@H](NC(=O)c4cc[n+]([O-])c5cc(O)cnc45)C3)n2-c2ccccc2F)nc1 [Example 27, 4-((trans-3-(5-(5-ethoxypyridin-2-yl)-4-(2-fluorophenyl)-4H-1,2,4-triazol-3-yl)cyclobutyl)carbamoyl)-7-hydroxy-1,5-naphthyridine 1-oxide] | – | – | 22 nM | 22 nM | 1.7 nM
– | CCOc1ccc(-c2nnc([C@H]3C[C@H](NC(=O)c4cc[n+]([O-])c5cc(F)cnc45)C3)n2-c2ccccc2F)nc1 [Example 29, 4-((trans-3-(5-(5-ethoxypyridin-2-yl)-4-(2-fluorophenyl)-4H-1,2,4-triazol-3-yl)cyclobutyl)carbamoyl)-7-fluoro-1,5-naphthyridine 1-oxide] | 2.8 nM | 2.8 nM | – | – | –

SMILES | IC50 (TNKS2; [5]) | IC50 (HEK293; [1]) | IC50 (HEK293; [2]) | IC50 (HEK293; [3]) | IC50 (HEK293; [4]) | IC50 (TNKS2)
CCOc1ccc(-c2nnc([C@H]3C[C@H](NC(=O)c4cc[n+]([O-])c5cccnc45)C3)n2-c2ccccc2F)nc1 [Example 26, 4-((trans-3-(5-(5-ethoxypyridin-2-yl)-4-(2-fluorophenyl)-4H-1,2,4-triazol-3-yl)cyclobutyl)carbamoyl)-1,5-naphthyridine 1-oxide] | 2.6 nM | 1.4 nM | 1.4 nM | – | – | –
